Holding throughout (format): binding
Experiment [1] has as its target T1, SHANK1 PDZ (Homo sapiens, UniProt Q9Y566).
T1 construct: Human Shank1 PDZ domain (656-762) was cloned into the pGEX-6P-2 expression vector; GST (N, cleaved yes); made in house; host or cells: E. coli BL21 Gold
T1 sequence (Q9Y566 656-762): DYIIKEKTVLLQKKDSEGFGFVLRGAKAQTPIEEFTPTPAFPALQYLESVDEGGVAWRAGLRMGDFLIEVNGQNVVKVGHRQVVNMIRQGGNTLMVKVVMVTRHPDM
Description: Fluorescence anisotropy competition assay (FITC-Ahx-TRL-COOH tracer). The conditions noted are these: 50 mM NH4Ac pH 6.5, 10 mM aniline. How it is done:
(d) FA competition curves for hybrids from the extended screen. All screening and validation assays were performed in 50 mM NH4Ac buffer, pH 6.5, 10 mM aniline using 1 μM final protein concentration and 10 nM FITC-Ahx-TRL-COOH as tracer at room temperature. […] Anisotropy is expressed relative to the control experiment where no competitor is present. Hit thresholds were defined based on the relative anisotropy of the (i) buffer control (rbuffer − 3σ) and (ii) the TRL control (rTRL − 3σ). Compounds below these thresholds are coloured blue and red respectively.
(0.22 µm membrane) and applied to glutathione beads and washed with 10 CV 20 mM Tris, pH 8, 500 mM NaCl. GST was cleaved on-column overnight at 4 °C using Prescission protease.
The eluted fractions were concentrated and purified by size-exclusion chromatography on S75 26/60 pg column in 20 mM Tris, 150 mM NaCl, 5% glycerol pH 7.5 buffer. Collected fractions were analysed by SDS-PAGE and concentrated. Pure protein was analysed by high resolution […]
determined by UV-VIS spectroscopy using the 8480 M-1 cm-1 extinction coefficient. […]
2.3. Aldehyde library selection
A diverse subset of fragments was selected from commercially available small molecule aldehydes (AldrichCPR, Fluorochem and Acros). Available compounds having one aldehyde functionality were filtered first based on physicochemical properties: 80 Da < MW < 400 Da, HBA, HBD ≤ 3, and clogP ≤ 5. To select a diverse set of compounds , first, binary molecular fingerprint s were generated for each molecule using the FragFp descriptor implemented in DataWarrior (openmolecules.org) , which relies on a predefined substructure fragment library and is used to compare 2D structural similarities. Then, using the same software , structurall y dissimilar subset of compounds was selected based on the molecular fingerprints. Compounds were further excluded based on undesired functional groups and commerical availability , […]
carboxylic acid functional groups.
2.4. Fluorescence anisotropy
Fluorescence anisotropy assays were performed in 384-well plates (Greiner Bio-one) and the fluorescence anisotropy measured using a Perkin Elmer EnVisionTM 2103 MultiLabel plate reader, with excitation at 480 nm (30 nm bandwidth), polarised dichroic mirror at 505 nm and […]
°C. Fluorescence anisotropy data was processed as described previously.4 The data from both […]
the P (perpendicular intensity) and S (parallel intensity) channels, resulting from this measurement and corrected by subtracting the corresponding control wells, were used to calculate the intensity and anisotropy for each well following Equations 1 and 2: […]
r = anisotropy, I = total intensity, P = perpendicular intensity, S = parallel intensity, G is an […]
Assays were performed in 50 mM NH4Ac, 10 mM aniline, pH 6.5 buffer. Shank 1 PDZ was dialysed into the assay buffer prior to the experiment. […]
(In general: In fluorescence polarisation assays a small probe gives low polarisation when free and higher when bound to something large.)

The target of experiment [2] is T1, SHANK1 PDZ. Description: Isothermal titration calorimetry (ITC). The settings on record: for Kd / n (ITC stoichiometry) / ΔH / ΔS: 25 mM Tris pH 7.5, 150 mM NaCl, 25 °C. As to the method: Fitted thermograms and thermodynamic signatures for the tested peptides and hydrazones. […] For individual raw ITC data and fitted thermograms see Fig. S14. ^† […]
Figure S14. Raw ITC data (top) and fitted thermograms (bottom) for the tested hydrazone hits and […]
0.75-1 mM peptide or hydrazone solution to 75-150 µM protein.
(1 picture or pasted object on this page, not shown here)
2.5. Isothermal tritration calorimetry
ITC experiments were carried out using Microcal ITC200i instrument (Malvern) at 25°C […]
Shank1 PDZ was dialysed against the buffer prior to experiment, lyophilized peptides and hydrazones were dissolved in the same buffer. 75 or […]
depending on compound solubility, from the syringe using 2 µL injections with 120 s spacing between the injections for 20 injection. Heats of peptide dilution w ere measured by titrating the peptide into buffer and subtracted from each measurement. Dat a was analysed using Microcal Origin 8 and fitt ed to a one-binding site model. […]
(In general: ITC needs no label: the signal is the heat of the interaction.)

Experiment [3] deals with T2, PDZ domain of PSD-95 (PSD-95 PDZ1) (Homo sapiens, UniProt P78352).
T2 construct: made in house
Description: 1H-15N HSQC chemical shift perturbation titration. The settings on record: Fig. S24. An excerpt:
Since Class I PDZ domains bind to consensus sequences,[71,72] we set out to further assess the selectivity of the peptide-fragment hybrids against another Class I PDZ domain. We compared the ability to bind to SHANK1 PDZ against the ability to bind to the PDZ domain of PSD-95, a therapeutically important target in neuronal diseases and cancer.[58] We monitored the binding using chemical shift perturbations in the ^1H–^15N HSQC spectra of the PDZ domain of PSD-95 (Fig. S22, S23, Tables S7 and S8 ^†). […] However, PSD-95 also lacks the patch of cationic residues proximal to the C-terminal carboxylate binding site. Such a result provides confidence that the dynamic ligation screening approach used here can encode and retain selectivity.
PSD 95 PDZ1 amino acid sequence
Figure S22. Overlay of plots for 4-A047 with Ligand:protein ratio ranging from 1:1 to 100:1. The gradual change in chemical shifts of limited residues indicate that the binding of the ligand is specific and to the putative ligand binding site.
Figure S23. Mapping of chemical shift changes onto the structure of PSD95 PDZ1 using PDB Accession Code 2KA9 (cypin peptide in magenta). Residues whose chemical shifts are affected are coloured yellow; these residues line the binding site. […]
Table S7. Concentration dependent shift changes of compound 4-A047 for a few residues whose chemical shifts have been assigned […]

Experiment [4] addresses T1, SHANK1 PDZ. Description: Fluorescence anisotropy direct titration with FITC-labelled GKAP tracer. How it is done:
A diversity-based selection was performed on commercially available aldehyde fragments obeying guidelines for fragment-based drug design,[75] resulting in a small library of 129 compounds (A001–A129, Table S1 and Fig. S1 ^†). […] To allow us to perform the hybrid formation and screening in the presence of the target protein in a single step, it was necessary to first establish that SHANK1 PDZ was still able to bind to its natural ligand under the same conditions.
Figure S2. Rate of hydrazone exchange in 50 mM ammonium-acetate (NH4Ac), pH 6.5, 10 mM aniline buffer using 100 µM compound 4-A001 and 5 equivalents of three different aldehydes (corresponding to R2 groups) at room temperature. Hydrazone exchange was monitored by LC -MS; peaks for extracted ion chromatograms were integrated and normalized . […]
Figure S3. Fluorescence anisotropy direct titration of S HANK1 PDZ in 50 mM NH4Ac, pH 6.5 10 mM aniline containing buffer using 50 nM FITC-Ahx-GKAP as tracer. Plate was read after 24 hr incubation […]
Assays were performed in 50 mM NH4Ac, 10 mM aniline, pH 6.5 buffer. […] Fluorescence anisotropy direct titration assays were performed with protein concentration diluted over 24 points using ½ dilutions. […]
final protein concentration. […] For control wells, the tracer peptide was replaced with an identical volume of assay buffer and plates were read immediately, and after an hour or after 24 hours . […]

Where [5] appears, read: x-A001 incubated with 5 equiv aldehyde in presence of protein for 24 h, then 10 nM FITC-Ahx-TRL-COOH, SHANK1 PDZ 1 M, read-out: IC50 (Fig. S7-S9, S11, S12, hybrids selected for validation from single point screens).
Where [6] appears, read: 1 µM Shank1 PDZ, 10 nM FITC-Ahx-TRL-COOH, plates read immediately, room temperature, read-out: IC50 (Fig. S4, parent peptides and benzaldehyde hydrazones).
[7] abbreviates: Table S2, relative to core Ac-TRL-OH motif.

Read-outs that look alike come from different tables or passages of the source. Residues, ends and D or L forms follow the SMILES beside them. *: point of attachment. FITC = O=C1OC2(c3ccc(O)cc3Oc3cc(O)ccc32)c2ccc(NC(=S)*)cc21; Ahx = NCCCCCC(=O)O

T2 sequence (P78352 with tags, fused parts or gaps): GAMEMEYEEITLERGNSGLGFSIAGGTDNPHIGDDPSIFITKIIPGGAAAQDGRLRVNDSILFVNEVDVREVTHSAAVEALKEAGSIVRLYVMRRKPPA

For `CC(C)C[C@H](NC(=O)[C@H](CCCNC(=N)N)NC(=O)[C@@H](NC(=O)CCCC(=O)N/N=C/c1ccc(C(=O)O)cc1)[C@@H](C)O)C(=O)O` [4-A048], the IC50 at SHANK1 PDZ [1] (setting [5]) came out at 7.5 ± 0.8 µM. Besides, the Kd on SHANK1 PDZ [2] came out at 3.1 ± 0.2 µM.
For `CC(C)C[C@H](NC(=O)[C@H](CCCNC(=N)N)NC(=O)[C@@H](NC(=O)CCCC(=O)N/N=C/c1ccc(Cl)cc1C(=O)O)[C@@H](C)O)C(=O)O` [4-A144] the same measures were 3.7 ± 0.4 µM and 3.1 ± 0.2 µM.
`CC(C)C[C@H](NC(=O)[C@H](CCCNC(=N)N)NC(=O)[C@@H](NC(=O)CCC(=O)N/N=C/c1cccc(OC(C(=O)O)c2ccccc2)c1)[C@@H](C)O)C(=O)O` (stereo partly drawn) [3-A161] showed a Kd on SHANK1 PDZ [2] of 4.8 ± 0.4 µM.
In the case of `CC(C)C[C@H](NC(=O)[C@H](CCCNC(=N)N)NC(=O)[C@@H](NC(=O)CCCC(=O)NN=Cc1ccccc1)[C@@H](C)O)C(=O)O` [4-A001], the IC50 on SHANK1 PDZ [1] (setting [6]) came out at 19 ± 3 µM. The compound also yielded a Kd on SHANK1 PDZ [2] of 14.8 ± 0.8 µM.
For the compound `CC(C)C[C@H](NC(=O)[C@H](CCCNC(=N)N)NC(=O)[C@@H](NC(=O)CCCC(=O)N/N=C/c1ccccc1C(=O)O)[C@@H](C)O)C(=O)O` [4-A047], in experiment [3], the EC50 stood at 2400 ± 300 µM. For the same compound, the IC50 on SHANK1 PDZ [1] (setting [5]) stood at 7.3 ± 0.6 µM. At SHANK1 PDZ [2], this compound showed a Kd of 4.6 ± 0.2 µM.
“Ac-EAQTRL-OH [GKAP, Ac-EAQTRL-COOH, reference compound]”: at SHANK1 PDZ [2], the “n (ITC stoichiometry)” value turned out to be 1.07 ± 0.01, the ΔH was -7.07 ± 0.096 kcal/mol and the ΔS is 9.7 J mol^−1 K^−1. On SHANK1 PDZ [2] (setting [7]), the “ΔΔG (ΔGCompound-ΔGAc-TRL-OH)” value was -1.44 kcal/mol.
Take `CC(C)C[C@H](NC(=O)[C@H](CCCNC(=N)N)NC(=O)[C@@H](NC(=O)[C@H](CCC(N)=O)NC(=O)[C@H](C)NC(=O)[C@H](CCC(=O)O)NC(=O)CCCCCNC(=S)Nc1ccc2c(c1)C(=O)OC21c2ccc(O)cc2Oc2cc(O)ccc21)[C@@H](C)O)C(=O)O` [FITC-Ahx-GKAP] ({FITC-Ahx}-EAQTRL-OH; C-terminus assumed): the Kd at SHANK1 PDZ [4] (50 mM NH4Ac pH 6.5, 10 mM aniline, 50 nM tracer, read after 24 hr incubation at room temperature, read-out: KD (Fig. S3)) is 0.96 ± 0.08 µM; on SHANK1 PDZ [4] (KD (initial) of FITC labelled GKAP, pH 6.5, 10 mM aniline, did not significantly change over 24 hours) it was about 1 µM.
With `CC(C)C[C@H](NC(=O)[C@H](CCCNC(=N)N)NC(=O)[C@@H](NC(=O)CCC(=O)N/N=C/c1ccc(Cl)cc1C(=O)O)[C@@H](C)O)C(=O)O` [3-A144], the IC50 at SHANK1 PDZ [1] (setting [5]) was determined as 9 ± 1.6 µM. The compound also showed a Kd at SHANK1 PDZ [2] of 7.1 ± 0.9 µM.
With `CC(C)C[C@H](NC(=O)[C@H](CCCNC(=N)N)NC(=O)[C@@H](NC(=O)CCC(=O)NN=Cc1ccccc1)[C@@H](C)O)C(=O)O` [3-A001], the 50% inhibitory concentration (IC50) at SHANK1 PDZ [1] (setting [6]) is 51 ± 3 µM. Also, at SHANK1 PDZ [2], the Kd is 16 ± 3 µM, the “n (ITC stoichiometry)” value worked out at 1.04 ± 0.04, the ΔH was -2.32 ± 0.14 kcal/mol and the ΔS turned out to be 59.0 J mol^−1 K^−1. At SHANK1 PDZ [2] (setting [7]), the “GE group efficiency (-ΔΔG/ΔNnH)” value is 0.07 and the “ΔΔG (ΔGCompound-ΔGAc-TRL-OH)” value is -0.201 kcal/mol.
Regarding `CC(C)C[C@H](NC(=O)[C@H](CCCNC(=N)N)NC(=O)[C@@H](NC(=O)CCCC(=O)N/N=C/c1cccc(OC(C(=O)O)c2ccccc2)c1)[C@@H](C)O)C(=O)O` (stereo partly drawn) [4-A161], binding on SHANK1 PDZ [2] was characterised by a dissociation constant (Kd) of 1.54 ± 0.05 µM.
Consider `CC(C)C[C@H](NC(=O)[C@H](CCCNC(=N)N)NC(=O)[C@@H](NC(=O)CCC(=O)N/N=C/c1ccccc1C(=O)O)[C@@H](C)O)C(=O)O` [3-A047], for which the IC50 on SHANK1 PDZ [1] (setting [5]) amounted to 14 ± 1 µM. Moreover, the Kd on SHANK1 PDZ [2] was found to be 8 ± 1 µM.
For `CC(C)C[C@H](NC(=O)[C@H](CCCNC(=N)N)NC(=O)[C@@H](NC(=O)CCC(=O)N/N=C/c1ccc(C(=O)O)cc1)[C@@H](C)O)C(=O)O` [3-A048] the same measures were 11 ± 1 µM and 10 ± 1 µM.

Usually IC50 stands for the concentration at which inhibition is half-maximal. By Kd is commonly meant the concentration at which binding is half-saturated. Usually EC50 stands for the concentration that produces a half-maximal response.

Values taken from PMC8179271, “Identification of β-strand mediated protein–protein interaction inhibitors using ligand-directed fragment ligation” (Chemical Science, 2021).
